This note sets out measurements from patent US12624018B1, “Inhibitors of RIPK2 and medical uses thereof” (Odyssey Therapeutics, Inc., priority 2022, dated 2026).

Structures are written as SMILES.

The target in the assay is T1, RIPK2 enzyme (Homo sapiens, UniProt O43353).
T1 construct: purchased Carna 09-128
T1 sequence (O43353 1-299 limits assumed): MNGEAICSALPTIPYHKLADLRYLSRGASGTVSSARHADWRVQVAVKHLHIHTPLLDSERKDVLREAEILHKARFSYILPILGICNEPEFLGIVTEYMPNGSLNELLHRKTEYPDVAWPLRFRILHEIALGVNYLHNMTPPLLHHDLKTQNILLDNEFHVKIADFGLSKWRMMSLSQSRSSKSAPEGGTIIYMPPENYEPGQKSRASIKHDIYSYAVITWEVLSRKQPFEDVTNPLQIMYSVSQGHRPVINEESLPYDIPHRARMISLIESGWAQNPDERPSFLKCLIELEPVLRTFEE
Put plainly: RIPK2 inhibition (ADP-Glo Kinase Assay). The assay is classed as biochemical. The following applies: RIPK2 5 nM, ATP 150 μM, MBP substrate, read-out: RIPK2 IC50. In short, it runs like this: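 Human RIPK2 (5 nM) preincubated with compound 30 min at room temperature in 50 mM HEPES pH 7.5, 10 mM MgCl2, 2 mM DTT, 1 mM EGTA, 0.01% Brij-35, 0.05% BSA; native swine MBP as substrate. ADP formed quantified by ADP-Glo luminescence; percent inhibition relative to DMSO and no-enzyme controls.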
(In general: In ADP-Glo the light output rises with the ADP produced.)
As usually defined, the IC50 is the concentration at which inhibition is half-maximal. With `Cc1cc(CC(=O)Nc2cnn(C(C)(C)C)c2)ccc1Oc1ccnc2cc(OCC(F)(F)F)c(S(C)(=O)=O)cc12` [Compound 219, N-(1-(tert-butyl)-1H-pyrazol-4-yl)-2-(3-methyl-4-((6-(methylsulfonyl)-7-(2,2,2-trifluoroethoxy)quinolin-4-yl)oxy)phenyl)acetamide], the half-maximal inhibitory concentration (IC50) is less than 2.5 nM.

On to `Cc1cc(CC(=O)Nc2cnn(C(C)(C)C)c2)ccc1Oc1ccnc2ccc(OCCN)cc12` [Compound 222, 2-(4-((6-(2-aminoethoxy)quinolin-4-yl)oxy)-3-methyl-phenyl)-N-(1-(tert-butyl)-1H-pyrazol-4-yl)acetamide], for which the IC50 is less than 2.5 nM.

On to `Cc1cc(CC(=O)Nc2cnn(C(C)(C)C)c2)ccc1Oc1ccnc2ccc(OCCO)cc12` [Compound 223, N-(1-(tert-butyl)-1H-pyrazol-4-yl)-2-(4-((6-(2-hydroxy-ethoxy)quinolin-4-yl)oxy)-3-methylphenyl) acetamide], for which the IC50 was less than 2.5 nM.

`Cc1cc(CC(=O)Nc2cnn(C(C)(C)C)c2)ccc1Oc1ccnc2ccc(OCC(C)(C)O)cc12` [Compound 226, N-(1-(tert-butyl)-1H-pyrazol-4-yl)-2-(4-((6-(2-hydroxy-2-methyl-propoxy)quinolin-4-yl)oxy)-3-methylphenyl) acetamide]: the IC50 was less than 2.5 nM.

For the compound `Cc1cc(CC(=O)Nc2cnn(C(C)(C)C)c2)ccc1Oc1ccnc2ccc(OCC(=O)O)cc12` [Compound 227, 2-((4-(4-(2-((1-(tert-butyl)-1H-pyrazol-4-yl)amino)-2-oxoethyl)-2-methyl-phenoxy)quinolin-6-yl)oxy)acetic acid], the concentration for half-maximal inhibition (IC50) is less than 2.5 nM.

As to `Cc1cc(CC(=O)Nc2cnn(C(C)(C)C)c2)ccc1Oc1ccnc2ccc(OC3CNC3)cc12` [Compound 228, 2-(4-((6-(azetidin-3-yloxy)quinolin-4-yl)oxy)-3-methyl-pheny 1)-N-(1-(tert-butyl)-1H-pyrazol-4-yl)acetamide], the 50% inhibitory concentration (IC50) came out at 5.9 nM.

Turning to `CC(=O)N1CC(Oc2ccc3nccc(Oc4ccc(CC(=O)Nc5cnn(C(C)(C)C)c5)cc4C)c3c2)C1` [Compound 229, 2-(4-((6-((1-acetylazetidin-3-yl)oxy)quinolin-4-yl)oxy)-3-methyl-phenyl)-N-(1-(tert-butyl)-1H-pyrazol-4-yl)acetamide], the half-inhibitory concentration (IC50) is less than 2.5 nM.

With `Cc1cc(CC(=O)Nc2cc(C(C)(C)C)n(C)n2)ccc1Oc1ccnc2ccc(S(C)(=O)=O)cc12` [Compound 230, N-(5-(tert-butyl)-1-methyl-1H-pyrazol-3-yl)-2-(3-methyl-4-((6-(methylsulfonyl)quinolin-4-yl)oxy)phenyl)acetamide], the IC50 is less than 2.5 nM.

Regarding `[2H]C([2H])([2H])n1nc(NC(=O)Cc2ccc(Oc3ccnc4ccc(S(C)(=O)=O)cc34)c(C)c2)cc1C(C)(C)C` [Compound 231, N-(5-(tert-butyl)-1-(methyl-d3)-1H-pyrazol-3-yl)-2-(3-methyl-4-((6-(methylsulfonyl)quinolin-4-yl)oxy)phenyl)acetamide], the half-maximal inhibitory concentration (IC50) was less than 2.5 nM.

For the compound `CCn1nc(NC(=O)Cc2ccc(Oc3ccnc4ccc(S(C)(=O)=O)cc34)c(C)c2)cc1C(C)(C)C` [Compound 232, N-(5-(tert-butyl)-1-ethyl-1H-pyrazol-3-yl)-2-(3-methyl-4-((6-(methylsulfonyl)quinolin-4-yl)oxy)phenyl)acetamide], the 50% inhibitory concentration (IC50) is less than 2.5 nM.

With `Cc1cc(CC(=O)Nc2cc(C(C)C)n(C)n2)ccc1Oc1ccnc2ccc(S(C)(=O)=O)cc12` [Compound 233, N-(5-isopropyl-1-methyl-1H-pyrazol-3-yl)-2-(3-methyl-4-((6-(methylsulfonyl)quinolin-4-yl)oxy)phenyl)acetamide], the concentration for half-maximal inhibition (IC50) is less than 2.5 nM.

For the compound `Cc1cc(CC(=O)Nc2cc(C3CC3)[nH]n2)ccc1Oc1ccnc2ccc(S(C)(=O)=O)cc12` [Compound 234, N-(5-cyclopropyl-1H-pyrazol-3-yl)-2-(3-methyl-4-((6-(methylsulfonyl)quinolin-4-yl)oxy)phenyl)acetamide], the half-inhibitory concentration (IC50) was less than 2.5 nM.
